Test results as given in patent publication US4476122A, “Alkyloximes of 7-amino-thiazolyl-acetamido-cephalosporanic acids” (Roussel Uclaf, priority 1976, dated 1984).
In brackets after ≈: the same amount, converted by molar mass. Where two headings read alike, the source gives them in different places.

Key:
[1] = test system: Proteus mirabilis (indol-) A 235; assay: MIC, liquid medium dilution; format: cell-based
Protocol: (§1) The method used was a dilution of a liquid medium where a series of tubes received the same quantity of a sterile nutritive media and increasing doses of the test compounds were placed therein. Then each tube was seeded with a bacterial strain and was incubated for 24 or 48 hours at 37° C. in an oven. The increasing inhibition was determined by transillumination to determine the minimum inhibiting concentration (MIC in μg/ml) and the results are reported in the following Tables.

[2] = test system: Klebsiella pneumoniae Exp. 52 145; assay: MIC, liquid medium dilution; format: cell-based
Protocol: as §1

Providencia Du 48 = assay: MIC, liquid medium dilution; format: cell-based
Protocol: as §1

[3] = test system: Streptococcus pyogenes A 561; assay: MIC, liquid medium dilution; format: cell-based
Protocol: as §1

[4] = test system: Streptococcus faecalis 5 432; assay: MIC, liquid medium dilution; format: cell-based
Protocol: as §1

[5] = test system: Staphylococcus aureus ATCC 6 538 Pen-Sensitive; assay: MIC, liquid medium dilution; format: cell-based
Protocol: as §1

[6] = test system: Streptococcus faecalis 99 F 74; assay: MIC, liquid medium dilution; format: cell-based; conditions: Enterococcus faecalis
Protocol: as §1

[7] = test system: Escherichia Coli Sensitive Tetracycline ATCC 9 637; assay: MIC, liquid medium dilution; format: cell-based
Protocol: as §1

[8] = test system: Staphylococcus aureus UC 1 128 Pen-Resistant; assay: MIC, liquid medium dilution; format: cell-based
Protocol: as §1

[9] = test system: Salmonella typhimurium 420; assay: MIC, liquid medium dilution; format: cell-based; conditions: Salmonella enterica
Protocol: as §1

[10] = test system: Klebsiella pneumoniae 2 536 Resistant Gentamicine; assay: MIC, liquid medium dilution; format: cell-based
Protocol: as §1

[11] = test system: Serratia Resistant Gentamicine 2 532; assay: MIC, liquid medium dilution; format: cell-based
Protocol: as §1

Enterobacter cloacae 681 = assay: MIC, liquid medium dilution; format: cell-based; conditions: read-out: MIC
Protocol: as §1

[12] = test system: Escherichia Coli Resistant Tetracycline ATCC 11 303; assay: MIC, liquid medium dilution; format: cell-based
Protocol: as §1

[13] = test system: Bacillus subtilis ATCC 6 633; assay: MIC, liquid medium dilution; format: cell-based
Protocol: as §1

[14] = test system: Staphylococcus aureus exp. n° 54 146; assay: MIC, liquid medium dilution; format: cell-based
Protocol: as §1

[15] = test system: Escherichia Coli Exp. TO26 B6; assay: MIC, liquid medium dilution; format: cell-based
Protocol: as §1

[16] = test system: Escherichia Coli Resistant Gentamicine, Tobramycine R 55 123 D; assay: MIC, liquid medium dilution; format: cell-based
Protocol: as §1

[17] = test system: Escherichia coli (T) O26 B6; assay: Experimental infection with Escherichia coli (T) O26 B6 in mice; format: in vivo
Protocol: The products of Example 6 and 10 were studied for their activity against an experimental infection of Escherichia coli in groups of 10 male mice weighing about 22 g. The mice received an intraperitoneal injection of 0.5 ml of a 24 hour old culture in a nutritive media of Escherichia coli (T) O26 B6 of the Pasteur Institute diluted 1/5.5 with distilled water. The test product was administered subcutaneously or orally 1 hour and 5 and 24 hours after the infection and the number of dead was determined during 8 days.

[18] = test system: Proteus vulgaris (indol+) A 232; assay: MIC, liquid medium dilution; format: cell-based
Protocol: as §1

[19] = Enterococcus faecalis, 5432, 24 h

CO/N=C(\C(=O)NC1C(=O)N2C(C(=O)O)=C(CSc3nnc(C)s3)CS[C@H]12)c1csc(N)n1 (stereo partly shown) [Example 2, 7-[{2-(2-amino-4-thiazolyl)-2-methoxyiminoacetyl}amino]-3-[(2-methyl-1,3,4-thiadiazol-5-yl)-thiomethyl]-ceph-3-eme-4-carboxylic acid] gave an MIC ([1]; 24 h) of 0.2 µg/mL (≈ 0.379 µM), an MIC ([1]; 48 h) of 0.2 µg/mL (≈ 0.379 µM) and an MIC ([2]; EXP.52145, 24 h) of 0.05 µg/mL (≈ 0.0948 µM). For the same compound, the MIC ([2]; EXP.52145, 48 h, read-out: MIC) was 0.1 µg/mL (≈ 0.19 µM), the MIC (Providencia Du 48; DU48, 24 h, read-out: MIC) was 2 µg/mL (≈ 3.79 µM) and the MIC (Providencia Du 48; DU48, 48 h, read-out: MIC) was 5 µg/mL (≈ 9.48 µM). For the same compound, the MIC ([3]; A561, 24 h, read-out: MIC) was ≤ 0.02 µg/mL, the MIC ([3]; A561, 48 h, read-out: MIC) was ≤ 0.02 µg/mL and the MIC [4, 19] was 1 µg/mL (≈ 1.9 µM). It also gave an MIC ([4]; Enterococcus faecalis, 5432, 48 h, read-out: MIC) of 2 µg/mL (≈ 3.79 µM), an MIC ([5]; ATCC6, 24 h) of 1 µg/mL (≈ 1.9 µM) and an MIC ([5]; ATCC6, 48 h) of 1 µg/mL (≈ 1.9 µM). For the same compound, the MIC ([6]; 99F74, 24 h, read-out: MIC) was 2 µg/mL (≈ 3.79 µM), the MIC ([6]; 99F74, 48 h, read-out: MIC) was 5 µg/mL (≈ 9.48 µM) and the MIC ([7]; ATCC9, 24 h, read-out: MIC) was 0.6 µg/mL (≈ 1.14 µM). For the same compound, the MIC ([7]; ATCC9, 48 h) was 0.6 µg/mL (≈ 1.14 µM), the MIC ([8]; UC1, 24 h, read-out: MIC) was 2 µg/mL (≈ 3.79 µM) and the MIC ([8]; UC1, 48 h, read-out: MIC) was 2 µg/mL (≈ 3.79 µM). The MIC ([9]; 24 h, read-out: MIC) was 0.6 µg/mL (≈ 1.14 µM), the MIC ([9]; 48 h) was 0.6 µg/mL (≈ 1.14 µM) and the MIC ([10]; 24 h, read-out: MIC) was 0.6 µg/mL (≈ 1.14 µM). For the same compound, the MIC ([10]; 48 h) was 1 µg/mL (≈ 1.9 µM), the MIC ([11]; 24 h) was 1 µg/mL (≈ 1.9 µM) and the MIC ([11]; 48 h) was 1 µg/mL (≈ 1.9 µM). The MIC (Enterobacter cloacae 681; Enterobacter cloacae, 681, 24 h) was 40 µg/mL (≈ 75.8 µM), the MIC (Enterobacter cloacae 681; Enterobacter cloacae, 681, 48 h) was 40 µg/mL (≈ 75.8 µM) and the MIC ([12]; ATCC11, 24 h, read-out: MIC) was 0.1 µg/mL (≈ 0.19 µM). The MIC ([12]; ATCC11, 48 h) was 0.2 µg/mL (≈ 0.379 µM), the MIC ([13]; ATCC6, 24 h, read-out: MIC) was 0.6 µg/mL (≈ 1.14 µM) and the MIC ([13]; ATCC6, 48 h) was 1 µg/mL (≈ 1.9 µM). For the same compound, the MIC ([14]; 24 h, read-out: MIC) was 2 µg/mL (≈ 3.79 µM), the MIC ([14]; 48 h, read-out: MIC) was 2 µg/mL (≈ 3.79 µM) and the MIC ([15]; 24 h) was 0.4 µg/mL (≈ 0.758 µM). For the same compound, the MIC ([15]; 48 h) was 0.4 µg/mL (≈ 0.758 µM), the MIC ([16]; 24 h) was 0.4 µg/mL (≈ 0.758 µM) and the MIC ([16]; 48 h) was 0.4 µg/mL (≈ 0.758 µM).
For CO/N=C(\C(=O)NC1C(=O)N2C(C(=O)O)=C(C)CSC12)c1csc(N)n1 (stereo not shown) [Example 10, 7-[{2-(2-amino-4-thiazolyl)-2-methoxyimino}acetylamino]-3-methyl-ceph-3-eme-4-carboxylic acid], the “Mice surviving on the 8th day” value ([17]; per os, 3 × 0,5 mg) was 2/10, the “Mortality after 5 J (number of dead of 10)” value ([17]; per os, 3 × 0,5 mg) was 1 and the “Mortality after 6 J (number of dead of 10)” value ([17]; per os, 3 × 0,5 mg) was 2. For the same compound, the “Mortality after 21 H 30 (number of dead of 10)” value ([17]; per os, 3 × 0,5 mg) was 2, the “Mortality after 47 H (number of dead of 10)” value (“Mortality after 47 H” below) ([17]; per os, 3 × 0,5 mg) was 1 and the “Mortality after 70 H (number of dead of 10)” value ([17]; per os, 3 × 0,5 mg) was 2. For the same compound, the “Mice surviving on the 8th day” value ([17]; per os, 3 × 0,25 mg) was 2/10, the “Mortality after 21 H 30 (number of dead of 10)” value ([17]; per os, 3 × 0,25 mg) was 6 and the “Mortality after 24 H 30 (number of dead of 10)” value ([17]; per os, 3 × 0,25 mg) was 1. For the same compound, the “Mortality after 24 H (number of dead of 10)” value ([17]; per os, 3 × 0,25 mg) was 1, the “Mice surviving on the 8th day” value ([17]; per os, 3 × mg) was 7/10 and the “Mortality after 21 H 30 (number of dead of 10)” value ([17]; per os, 3 × mg) was 1. For the same compound, the “Mortality after 47 H” value ([17]; per os, 3 × mg) was 2, the “Mice surviving on the 8th day” value ([17]; s. c., 3 × 0,1 mg) was 6/10 and the “Mortality after 21 H 30 (number of dead of 10)” value ([17]; s. c., 3 × 0,1 mg) was 3. For the same compound, the “Mortality after 47 H” value ([17]; s. c., 3 × 0,1 mg) was 1, the “Mice surviving on the 8th day” value ([17]; s. c., 3 × 0,5 mg) was 8/10 and the “Mortality after 47 H” value ([17]; s. c., 3 × 0,5 mg) was 2. The “Mice surviving on the 8th day” value ([17]; s. c., 3 × 0,25 mg) was 7/10, the “Mortality after 5 H 30 (number of dead of 10)” value ([17]; s. c., 3 × 0,25 mg) was 1 and the “Mortality after 28 H (number of dead of 10)” value ([17]; s. c., 3 × 0,25 mg) was 1. For the same compound, the “Mortality after 54 H (number of dead of 10)” value ([17]; s. c., 3 × 0,25 mg) was 1, the MIC ([1]; 24 h, read-out: MIC) was 0.1 µg/mL (≈ 0.252 µM) and the MIC ([1]; 48 h) was 0.2 µg/mL (≈ 0.503 µM). It also gave an MIC ([2]; EXP.52145, 24 h, read-out: MIC) of 0.1 µg/mL (≈ 0.252 µM), an MIC ([2]; EXP.52145, 48 h, read-out: MIC) of 0.1 µg/mL (≈ 0.252 µM) and an MIC (Providencia Du 48; DU48, 24 h) of 2 µg/mL (≈ 5.03 µM). For the same compound, the MIC (Providencia Du 48; DU48, 48 h) was 5 µg/mL (≈ 12.6 µM), the MIC ([3]; A561, 24 h) was 0.05 µg/mL (≈ 0.126 µM) and the MIC ([3]; A561, 48 h, read-out: MIC) was 0.05 µg/mL (≈ 0.126 µM). The MIC [4, 19] was 20 µg/mL (≈ 50.3 µM), the MIC ([4]; Enterococcus faecalis, 5432, 48 h) was > 40 µg/mL and the MIC ([18]; 24 h) was 3 µg/mL (≈ 7.55 µM). The MIC ([18]; 48 h) was 20 µg/mL (≈ 50.3 µM), the MIC ([5]; ATCC6, 24 h) was 20 µg/mL (≈ 50.3 µM) and the MIC ([5]; ATCC6, 48 h) was 40 µg/mL (≈ 101 µM). For the same compound, the MIC ([6]; 99F74, 24 h) was 20 µg/mL (≈ 50.3 µM), the MIC ([6]; 99F74, 48 h) was > 40 µg/mL and the MIC ([7]; ATCC9, 24 h, read-out: MIC) was 0.6 µg/mL (≈ 1.51 µM). For the same compound, the MIC ([7]; ATCC9, 48 h) was 0.6 µg/mL (≈ 1.51 µM), the MIC ([8]; UC1, 24 h) was 40 µg/mL (≈ 101 µM) and the MIC ([8]; UC1, 48 h) was 40 µg/mL (≈ 101 µM). It also gave an MIC ([9]; 24 h, read-out: MIC) of 0.6 µg/mL (≈ 1.51 µM), an MIC ([9]; 48 h) of 0.6 µg/mL (≈ 1.51 µM) and an MIC ([10]; 24 h, read-out: MIC) of 0.6 µg/mL (≈ 1.51 µM). It also gave an MIC ([10]; 48 h) of 2 µg/mL (≈ 5.03 µM), an MIC ([11]; 24 h) of 5 µg/mL (≈ 12.6 µM) and an MIC ([11]; 48 h, read-out: MIC) of 10 µg/mL (≈ 25.2 µM). The MIC ([12]; ATCC11, 24 h) was 0.2 µg/mL (≈ 0.503 µM), the MIC ([12]; ATCC11, 48 h) was 0.2 µg/mL (≈ 0.503 µM) and the MIC ([13]; ATCC6, 24 h) was 20 µg/mL (≈ 50.3 µM). For the same compound, the MIC ([13]; ATCC6, 48 h) was > 40 µg/mL, the MIC ([14]; 24 h) was 40 µg/mL (≈ 101 µM) and the MIC ([14]; 48 h) was 40 µg/mL (≈ 101 µM). For the same compound, the MIC ([15]; 24 h) was 0.4 µg/mL (≈ 1.01 µM), the MIC ([15]; 48 h) was 0.6 µg/mL (≈ 1.51 µM) and the MIC ([16]; 24 h, read-out: MIC) was 0.6 µg/mL (≈ 1.51 µM). The MIC ([16]; 48 h) was 0.6 µg/mL (≈ 1.51 µM).
